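Cells were grown in 96-well plates and exposed to each compound for 48 hours at five concentrations; endpoints were interpolated linearly between bracketing concentrations, or set to the highest concentration if not reached. At the GI50, growth is halved.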 The source made the active and inactive calls. Rule as the data show it: active = GI50 up to about 1.1 µM and inactive = higher.
Tests used:
Test in all cases: DTP human tumour cell line panel, 48 h
786-0 = system: 786-0
CAKI-1 = system: CAKI-1
CCRF-CEM = system: CCRF-CEM
EKVX = system: EKVX
HOP-92 = system: HOP-92
LOX IMVI = system: LOX IMVI
MDA-MB-435 = system: MDA-MB-435
MOLT-4 = system: MOLT-4
NCI-H226 = system: NCI-H226
NCI-H23 = system: NCI-H23
NCI-H522 = system: NCI-H522
OVCAR-3 = system: OVCAR-3
RXF 393 = system: RXF 393
SF-295 = system: SF-295
SF-539 = system: SF-539
SK-MEL-28 = system: SK-MEL-28
SK-MEL-2 = system: SK-MEL-2
SN12C = system: SN12C
TK-10 = system: TK-10
UO-31 = system: UO-31

Structure (SMILES)	GI50 (786-0)	GI50 (CAKI-1)	GI50 (CCRF-CEM)	GI50 (EKVX)	GI50 (HOP-92)	GI50 (LOX IMVI)	GI50 (MDA-MB-435)	GI50 (MOLT-4)	GI50 (NCI-H226)	GI50 (NCI-H23)	GI50 (NCI-H522)	GI50 (OVCAR-3)	GI50 (RXF 393)	GI50 (SF-295)	GI50 (SF-539)	GI50 (SK-MEL-28)	GI50 (SK-MEL-2)	GI50 (SN12C)	GI50 (TK-10)	GI50 (UO-31)
COC(=N)C1(C#N)NC(c2ccsc2)C(C#N)(C#N)NC1c1ccsc1 (stereo unspecified)	> 100 µM (inactive)	> 100 µM (inactive)	> 100 µM (inactive)	> 100 µM (inactive)	60.7 µM (inactive)	> 100 µM (inactive)	> 100 µM (inactive)	> 100 µM (inactive)	> 100 µM (inactive)	> 100 µM (inactive)	> 100 µM (inactive)	> 100 µM (inactive)	> 100 µM (inactive)	> 100 µM (inactive)	> 100 µM (inactive)	> 100 µM (inactive)	> 100 µM (inactive)	> 100 µM (inactive)	> 100 µM (inactive)	> 100 µM (inactive)
CC1OC(O[C@H]2CC[C@]3(C=O)[C@H]4CC[C@]5(C)[C@H](C6=CC(=O)OC6)CC[C@]5(O)[C@@H]4C=C[C@]3(O)C2)CC(O)C1O (stereo partly specified)	0.0871 µM (active)	0.103 µM (active)	0.102 µM (active)	0.261 µM (active)	0.577 µM (active)	0.292 µM (active)	0.346 µM (active)	0.083 µM (active)	0.514 µM (active)	0.143 µM (active)	0.0615 µM (active)	0.15 µM (active)	0.0661 µM (active)	0.13 µM (active)	0.169 µM (active)	0.692 µM (active)	0.505 µM (active)	0.117 µM (active)	0.29 µM (active)	0.214 µM (active)
O=c1[nH]nc(-c2ccccc2)n1-n1cnnc1	> 100 µM (inactive)	> 100 µM (inactive)	> 100 µM (inactive)	> 100 µM (inactive)	> 100 µM (inactive)	> 100 µM (inactive)	> 100 µM (inactive)	> 100 µM (inactive)	> 100 µM (inactive)	> 100 µM (inactive)	> 100 µM (inactive)	> 100 µM (inactive)	> 100 µM (inactive)	> 100 µM (inactive)	> 100 µM (inactive)		> 100 µM (inactive)	> 100 µM (inactive)	> 100 µM (inactive)	> 100 µM (inactive)
COc1ccc(/C=C/c2nsc(/C=C/c3ccc(OC)cc3)n2)cc1	21.8 µM (inactive)	> 100 µM (inactive)	19.3 µM (inactive)	> 100 µM (inactive)	> 100 µM (inactive)	55.1 µM (inactive)	85.1 µM (inactive)	33 µM (inactive)	> 100 µM (inactive)		39.6 µM (inactive)	> 100 µM (inactive)	> 100 µM (inactive)	> 100 µM (inactive)	> 100 µM (inactive)	> 100 µM (inactive)	> 100 µM (inactive)		> 100 µM (inactive)	> 100 µM (inactive)
S=c1cc(-c2ccc3c(c2)OCO3)s[nH]1	> 100 µM (inactive)	> 100 µM (inactive)	> 100 µM (inactive)	> 100 µM (inactive)	> 100 µM (inactive)	> 100 µM (inactive)	> 100 µM (inactive)	65.3 µM (inactive)	58.5 µM (inactive)	> 100 µM (inactive)	5.81 µM (inactive)	> 100 µM (inactive)	> 100 µM (inactive)	> 100 µM (inactive)	> 100 µM (inactive)	> 100 µM (inactive)	> 100 µM (inactive)	> 100 µM (inactive)	> 100 µM (inactive)	> 100 µM (inactive)
O=C1CC2CCC(C1)[S+]2[O-] (stereo unspecified)	> 100 µM (inactive)	> 100 µM (inactive)	> 100 µM (inactive)	> 100 µM (inactive)	> 100 µM (inactive)	> 100 µM (inactive)	> 100 µM (inactive)	> 100 µM (inactive)	> 100 µM (inactive)	> 100 µM (inactive)	> 100 µM (inactive)	> 100 µM (inactive)	> 100 µM (inactive)	61.4 µM (inactive)	> 100 µM (inactive)	> 100 µM (inactive)	> 100 µM (inactive)	> 100 µM (inactive)	> 100 µM (inactive)	> 100 µM (inactive)
CSc1ccn(C2CC(F)C(CO)O2)c(=O)n1 (stereo unspecified)	> 100 µM (inactive)	> 100 µM (inactive)	> 100 µM (inactive)	> 100 µM (inactive)	> 100 µM (inactive)	> 100 µM (inactive)	> 100 µM (inactive)	> 100 µM (inactive)	> 100 µM (inactive)	> 100 µM (inactive)	> 100 µM (inactive)	> 100 µM (inactive)	> 100 µM (inactive)	> 100 µM (inactive)	> 100 µM (inactive)		> 100 µM (inactive)	> 100 µM (inactive)	> 100 µM (inactive)	> 100 µM (inactive)
